Source: ChEMBL document CHEMBL1151825, “Schisanwilsonenes A-C, anti-HBV Carotane sesquiterpenoids from the fruits of Schisandra wilsoniana” (J Nat Prod, 2009)

Experiments:
Hepatitis B virus [1] = assay: Antiviral activity against HBV infected in human HepG2 2.2.15 cells assessed as inhibition of HBsAg secretion at 50 ug/mL after 9 days by ELISA; type: functional; conditions: HepG2, 216 h
Hepatitis B virus [2] = assay: Antiviral activity against HBV infected in human HepG2 2.2.15 cells assessed as inhibition of HBsAg secretion at 25 ug/mL after 9 days by ELISA; type: functional; conditions: HepG2, 216 h
Hepatitis B virus [3] = assay: Antiviral activity against HBV infected in human HepG2 2.2.15 cells assessed as inhibition of HBeAg secretion at 50 ug/mL after 9 days by ELISA; type: functional; conditions: HepG2, 216 h
Hepatitis B virus [4] = assay: Antiviral activity against HBV infected in human HepG2 2.2.15 cells assessed as inhibition of HBeAg secretion at 25 ug/mL after 9 days by ELISA; type: functional; conditions: HepG2, 216 h
[5] = Cytotoxicity of human HepG2(2.2.15) cells assessed as growth inhibition at 200 ug/mL by MTT assay; type: cell-based
[6] = Cytotoxicity of human HepG2(2.2.15) cells assessed as growth inhibition at 100 ug/mL by MTT assay; type: cell-based
Hepatitis B virus [7] = assay: Antiviral activity against HBV infected in human HepG2 2.2.15 cells assessed as inhibition of HBsAg secretion at 100 ug/mL after 9 days by ELISA; type: functional; conditions: HepG2, 216 h
Hepatitis B virus [8] = assay: Antiviral activity against HBV infected in human HepG2 2.2.15 cells assessed as inhibition of HBeAg secretion at 100 ug/mL after 9 days by ELISA; type: functional; conditions: HepG2, 216 h
Hepatitis B virus [9] = assay: Antiviral activity against HBV infected in human HepG2 2.2.15 cells assessed as inhibition of HBsAg secretion at 200 ug/mL after 9 days by ELISA; type: functional; conditions: HepG2, 216 h
Hepatitis B virus [10] = assay: Antiviral activity against HBV infected in human HepG2 2.2.15 cells assessed as inhibition of HBeAg secretion at 200 ug/mL after 9 days by ELISA; type: functional; conditions: HepG2, 216 h

Compound | inhibition at 50 µg/mL (Hepatitis B virus [1]) [%] | inhibition at 25 µg/mL (Hepatitis B virus [2]) [%] | inhibition at 50 µg/mL (Hepatitis B virus [3]) [%] | inhibition at 25 µg/mL (Hepatitis B virus [4]) [%] | inhibition at 200 ug/mL [5] [%] | inhibition at 100 ug/mL [6] [%] | inhibition at 100 µg/mL (Hepatitis B virus [7]) [%] | inhibition at 100 µg/mL (Hepatitis B virus [8]) [%] | inhibition at 200 µg/mL (Hepatitis B virus [9]) [%] | inhibition at 200 µg/mL (Hepatitis B virus [10]) [%]
CC(C)(O)[C@@H]1CC[C@@]2(C)CCC(CO)=CC[C@H]12 (relative stereo) [SCHISANWILSONENE A] | 76.5 | 27.5 | 28.9 | 11.3 | ≥ 25 | ≥ 25 |  |  |  | 
CC(=O)OCC1=CC[C@@H]2[C@H](C(C)(C)O)CC[C@@]2(C)CC1 (relative stereo) [SCHISANWILSONENE B] | 20.5 | 5.6 | 0 | 0 | ≥ 25 |  | 58.6 | 0 |  | 
CC(C)(O)[C@@H]1CC[C@@]2(C)CCC(C=O)=CC[C@H]12 (relative stereo) [SCHISANWILSONENE C] | 5.5 | 0 | 1.4 | 1.1 |  |  | 11.7 | 6.1 | 28.3 | 8.8
Nc1ccn([C@@H]2CS[C@H](CO)O2)c(=O)n1 [LAMIVUDINE] |  |  |  |  |  |  |  |  | 28.6 | 34.8
